Measured values from patent US11186612B2, “Substance P analog having progenitor cell or stem cell recruiting activity and method for progenitor cell or stem cell recruiting using the same” (AJOU UNIVERSITY INDUSTRY-ACADEMIC COOPERATION FOUNDATION, priority 2019, dated 2021).
Where no end group is shown, it is not given here.

Experiments:
[1] = test system: human-derived MSCs (hMSCs); assay: Stem cell migration evaluation ex vivo (24-well Transwell plate, PKH 26-labeled hMSCs); assay type: cell-based; conditions: 1 μg/mL in DMEM + 1% FBS in bottom well, FIG. 2; for stem cell migration compared with the control: hMSCs in upper chamber
Method: In the present invention, to compare the stem cell recruiting activities of SP and the SP1 of the present invention, stem cell migration was evaluated in an ex vivo environment.
First, human-derived MSCs (hMSCs) were labeled with a PKH 26 dye (Sigma, USA), and 5×10^4 cells were put into an upper chamber (8.0 μm pore size) of a 24-well Transwell plate (SPL, Korea). After the hMSCs were cultured in the upper chamber for 48 hours using a serum-free DMEM (Gibco, USA), a medium prepared under the following conditions in Table 2 was added into a bottom well, and then the medium was replaced with a fresh one every third day, followed by observing hMSCs in the bottom well using a fluorescence microscope.

[2] = test system: human-derived MSCs (hMSCs); assay: In vivo migration of ICG-labeled hMSCs to injected Cx-HA hydrogel containing SP or SP1 (NIR fluorescence imaging); design: species or system nude mouse; conditions: for fluorescence (recruited hMSC) at injected site: NIR-labeled Cx-HA hydrogel with 1 μg/mL peptide injected in one side of nude mouse, hMSCs via caudal vein, control Cx-HA no fluorescence
Method: Each of the NIR-HA-TET and NIR-HA-TCO, which were prepared in Example 3-1, was dissolved in 2% physiological saline to have a volume of 20 mg/mL, thereby preparing an aqueous solution, and 1 μg/mL of SP having an amino acid sequence of SEQ ID NO: 1 or SP1 having an amino acid sequence of SEQ ID NO: 2 was added to each solution. After 1-hour stirring, a hyaluronic acid hydrogel solution containing a stem cell recruiting factor was obtained by mixing the mixed solution prepared by stirring each of the solutions using a dual syringe.
NIR-labeled Cx-HA was injected into one side of a nude mouse, and NIR-labeled Cx-HA containing a stem cell recruiting factor was injected into the other side thereof, as shown in Table 3.
To visually confirm the extent of stem cell recruiting of SP1 in the present invention, hMCSs were labeled with indocyanine green and injected into a mouse caudal vein.
First, an indocyanine green (ICG) solution was prepared by dissolving 2 mg of ICG in 200 μL of DMSO, and mixing the resulting solution with 800 μL of a culture medium (DMEM (low-glucose)+10% FBS+1% penicillin-streptomycin). 10 μL of a 10 mg/mL protamine solution, 600 μL of the ICG solution and 600 μL of MEM-α were mixed, and gently stirred for 5 minutes. Afterward, the medium was removed from the flask in which hMSCs were cultured, replaced with 10 mL of a serum-free DMEM (low-glucose) medium, and then incubated for 1 hour at 37° C. under a 5% CO2 condition by adding a protamine/ICG solution.
Subsequently, the medium was removed, and the cells were washed with 10 mL PBS and treated with trypsin, thereby obtaining hMSCs. The hMSCs were prepared to be 1×10^6 cells/100 μL, and […] was injected into the caudal veins of nude mice using a […] syringe (FIG. 3). NIR fluorescence imaging was performed at a predetermined time using FOBI (NeoScience, Suwon, Korea) at 730 nm under conditions of an exposure of 2000 ms and a gain of 5.
To confirm the extent of promotion of in vivo hMSC migration by SP1 in the present invention, the hMSC-injected nude mice prepared in Example 4 were subjected to NIR fluorescence imaging using FOBI (NeoScience, Suwon, Korea) at 730 nm under conditions of an exposure of 2000 ms and a gain of 5.

Row | Sequence | number of moved stem cells compared with the SP-treated group [1] | stem cell migration compared with the control [1] | stem cell recruiting activity maintenance time ([2]; Cx-HA hydrogel 1 μg/mL peptide, nude mouse, FIG. 6, compared with conventional SP) | stem cell recruiting activity, comparing FIGS. 4 (SP) and 5 (SP1) ([2]; Cx-HA hydrogel 1 μg/mL peptide, nude mouse, NIR imaging over time, compared with SP) | amount of stem cells moved to the injected site, quantified (FIG. 6): stem cell recruiting activity ([2]; Cx-HA hydrogel 1 μg/mL peptide, nude mouse, compared with conventional SP) | fluorescence (recruited hMSC) at injected site [2]
1 | RISPQQRDALA (SP1) | high | stem cells moved | longer | higher stem cell recruiting activity | higher stem cell recruiting activity | fluorescence was observed
2 | RPKPQQFFGLM (RPKPQQFFGLM-NH2) [SP, neuropeptide of 11 amino acids (Arg-Pro-Lys-Pro-Gln-Gln-Phe-Phe-Gly-Leu-Met-NH2), endogenous NKR1 ligand, reference compound] | – | stem cells moved | – | – | – | fluorescence was observed
